In PubChem BioAssay AID1552 (Sanford-Burnham Center for Chemical Genomics, 2009):
Calls of active or inactive are those of the source. How the calls were made is not given here.

These compounds were tested against Ubiquitin-conjugating enzyme E2 N (Homo sapiens) (UniProt P61088) (assay: UBE2N binders by NMR, biophysical, purified protein (AID 1552)). Settings: NMR binding to purified UBE2N.
Sequence of Ubiquitin-conjugating enzyme E2 N (Homo sapiens) (P61088 whole entry, looked up): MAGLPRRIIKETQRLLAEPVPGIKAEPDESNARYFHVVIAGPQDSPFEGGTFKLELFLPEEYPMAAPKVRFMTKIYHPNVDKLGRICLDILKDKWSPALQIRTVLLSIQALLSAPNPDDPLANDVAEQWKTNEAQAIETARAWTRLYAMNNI
With `CC(=O)N1CCN(S(=O)(=O)c2ccccc2)CC1` the Kd was > 4 mM (inactive). For `CC(C)c1c(O)ccc2c1CCC1[C@@](C)(C=O)CCC[C@]21C` (stereo partly drawn), the Kd was > 4 mM (inactive). In the case of `O=c1cnnc(N2CCCCC2)[nH]1`, the Kd is reported as > 4 mM (inactive). `Cc1nn(C)c(N2CCOCC2)c1N` was tested, and the Kd was > 4 mM (inactive). For `c1nnc2c3c4c(sc3ncn12)CCCC4`, the Kd was > 4 mM (inactive). In the case of `NCc1csc(-c2cccs2)n1`, the Kd is reported as > 4 mM (inactive). For `NC(=S)NC(=O)CN1C(=O)c2ccccc2C1=O`, the Kd was > 4 mM (inactive). In the case of `Cn1ncc(SCc2ccco2)c(Cl)c1=O`, the Kd is reported as > 4 mM (inactive). For `C[C@]12C=CC(=O)C=C1CCC1C2CC[C@]2(C)C(=O)CCC12` (stereo partly drawn), the Kd was > 4 mM (inactive). With `Cc1nnc(SCC(=O)N2CCc3ccccc32)s1` the Kd was > 4 mM (inactive). In the case of `NC1=NC(=O)/C(=C\c2cccc(C(=O)O)c2)S1`, the Kd is reported as > 4 mM (inactive). For `CC(=O)Nc1cccc(N(C)S(C)(=O)=O)c1`, the Kd was > 4 mM (inactive). `CCN1C[C@@]2(COC)C3[C@@H](OC)[C@H]4[C@@H]1[C@]3(C(OC)C[C@H]2O)C1C[C@@]2(O)[C@H](OC(=O)c3ccccc3)C1[C@]4(OC(C)=O)[C@@H](O)[C@@H]2OC` (stereo partly drawn) was tested, and the Kd was > 4 mM (inactive). `C[C@]12CC(=O)C3C(CC[C@@H]4C[C@H](O)CC[C@]34C)C1CC[C@]2(O)C(=O)CO` (stereo partly drawn) was tested, and the Kd was > 4 mM (inactive). `Cc1cc(NS(=O)(=O)Cc2ccccc2)no1` was tested, and the Kd was > 4 mM (inactive). In the case of `NC(=O)c1cccnc1Oc1ccccc1`, the Kd is reported as > 4 mM (inactive). In the case of `O=c1c2ccccc2ncn1C1CCCCC1`, the Kd is reported as > 4 mM (inactive). With `O=C(O)c1cc(O)c2c(c1)[C@@H]([C@H]1c3cc(C(=O)O)cc(O)c3C(=O)c3c(O[C@H]4O[C@H](CO)[C@@H](O)[C@H](O)[C@H]4O)cccc31)c1cccc(O[C@H]3O[C@H](CO)[C@@H](O)[C@H](O)[C@H]3O)c1C2=O` the Kd was > 4 mM (inactive). `CNC(=O)C(=O)Nc1cccc(Cl)c1` was tested, and the Kd was > 4 mM (inactive). For `Cc1nnc(SCc2ccon2)n1-c1ccccc1`, the Kd was > 4 mM (inactive). In the case of `CN(C)C(=O)CSc1cccc2cccnc12`, the Kd is reported as > 4 mM (inactive). With `C1CCN2C[C@@H]3C[C@H](CN4CCCC[C@@H]34)[C@H]2C1` the Kd was > 4 mM (inactive). With `COc1cc2c(cc1OC)C(C)NCC2` (stereo not drawn) the Kd was > 4 mM (inactive). With `CN1CCn2c1nc(N1CCCCC1)nc2=O` the Kd was > 4 mM (inactive). With `O=c1/c(=C/c2ccccc2F)sc2ncnn12` the Kd was > 4 mM (inactive). For `Cc1cc(N2CCN(C)CC2)ncn1`, the Kd was > 4 mM (inactive). `CN1CCN(Cc2cccnc2)CC1` was tested, and the Kd was > 4 mM (inactive). `CC(=O)Nc1ccc(Cl)c(C(N)=O)c1` was tested, and the Kd was > 4 mM (inactive). For `CN(C)C(=O)Nc1ccc(F)cc1F`, the Kd was > 4 mM (inactive). With `O=C(/C=C/c1ccc(O)cc1)c1ccc(O)cc1O` the Kd was > 4 mM (inactive). `COC(=O)NNc1ncnc(N)c1[N+](=O)[O-]` was tested, and the Kd was > 4 mM (inactive). `O=C(Nc1ccc2c(c1)OCCO2)c1ccncc1` was tested, and the Kd was > 4 mM (inactive). In the case of `COc1cc2c(cc1OC)[C@@H]1C(=O)c3ccc(O)c(CC=C(C)C)c3O[C@@H]1CO2`, the Kd is reported as > 4 mM (inactive). With `NC(=O)C1(S(=O)(=O)c2ccccc2)CC1` the Kd was > 4 mM (inactive). With `O=S1(=O)CCC(NC(=S)N2CCOCC2)C1` (stereo not drawn) the Kd was > 4 mM (inactive). With `O=[N+]([O-])c1c[n+]([O-])n(-c2ccccc2)n1` the Kd was > 4 mM (inactive). With `CCOC(=O)C1CCN(Cc2ccccc2)CC1` the Kd was > 4 mM (inactive). For `Cc1onc(-c2ccccc2)c1CO`, the Kd was > 4 mM (inactive). For `C=CCn1c(N)c(C(=O)N2CCOCC2)sc1=S`, the Kd was > 4 mM (inactive). With `OC1CSc2ncnn2C1` (stereo not drawn) the Kd was > 4 mM (inactive). For `NC12CC3CC(C1)CC(C(=O)O)(C3)C2`, the Kd was > 4 mM (inactive). For `COc1cccc(Oc2ccc(N)cc2)c1`, the Kd was > 4 mM (inactive). In the case of `CCC(=O)Nc1ccc(-c2nn3c(C)nnc3s2)cc1`, the Kd is reported as > 4 mM (inactive). In the case of `Cn1cnc2nc3n(c2c1=O)CCC3`, the Kd is reported as > 4 mM (inactive). In the case of `COc1ccc(-c2ccc(SCC(N)=O)nn2)cc1`, the Kd is reported as > 4 mM (inactive). In the case of `Cc1nn2c(-c3ccncc3)nnc2c2ccccc12`, the Kd is reported as > 4 mM (inactive). `O=C(O)Cn1cc(C(=O)C2CC2)c2ccccc21` was tested, and the Kd was > 4 mM (inactive). In the case of `O=C(/C=C/c1ccccc1)NC1CCS(=O)(=O)C1` (stereo not drawn), the Kd is reported as > 4 mM (inactive). For `NC(=O)CNC(=O)c1ccc2ccccc2n1`, the Kd was > 4 mM (inactive). For `Cc1occc1C(=O)Nc1ccc(C(N)=O)cc1`, the Kd was > 4 mM (inactive). In the case of `CCOC(=O)c1c(C)nc2sccn12`, the Kd is reported as > 4 mM (inactive). `O=S(=O)(O)c1nc2ccccc2[nH]1` was tested, and the Kd was > 4 mM (inactive). `COc1cc(OC)c2ccc(=O)oc2c1` was tested, and the Kd was > 4 mM (inactive). In the case of `O=C(O)c1scc2c1CCCC2`, the Kd is reported as > 4 mM (inactive). For `S=c1nc2c(n[nH]1)[nH]c1ccccc12`, the Kd was > 4 mM (inactive). In the case of `N#Cc1nc(N2CCCCC2)nc(N2CCOCC2)n1`, the Kd is reported as > 4 mM (inactive). For `CCOC(=O)C1CN(C)CCN1C` (stereo not drawn), the Kd was > 4 mM (inactive). With `COC(=O)c1cc(-c2c[nH]c3ccccc23)n[nH]1` the Kd was > 4 mM (inactive). For `CSc1nn(-c2ccccc2)c(N)c1C#N`, the Kd was > 4 mM (inactive). For `COc1ccc2c(c1)OCc1c-2oc2cc(OC)ccc12`, the Kd was > 4 mM (inactive). In the case of `Cn1[nH]c2nc3[nH]n(C)c(=O)c3c(-c3ccccc3)c2c1=O`, the Kd is reported as > 4 mM (inactive). With `CCn1nnc2c(NCc3ccccn3)ncnc21` the Kd was > 4 mM (inactive). For `O=C(Nc1ccc2c(c1)OCO2)c1c(F)cccc1F`, the Kd was > 4 mM (inactive). For `Cc1cc(O)c(NC(=O)c2ccco2)cc1C`, the Kd was > 4 mM (inactive). `C=C[C@](C)(O)CCC=C(C)C` was tested, and the Kd was > 4 mM (inactive). With `COc1ncccc1N` the Kd was > 4 mM (inactive). `COc1ccc(-c2cc(=O)c3ccccc3o2)cc1` was tested, and the Kd was > 4 mM (inactive). In the case of `O=C(O)c1ccc(Oc2ccccc2)nc1`, the Kd is reported as > 4 mM (inactive). In the case of `CCc1nnsc1C(=O)Nc1nccs1`, the Kd is reported as > 4 mM (inactive). With `Cc1cccc(C)c1NC(=O)/C=C/C(=O)O` the Kd was > 4 mM (inactive). For `NC(=O)c1cc(Cl)c(C(N)=O)cc1Cl`, the Kd was > 4 mM (inactive). For `COC(=O)c1scc(S(C)(=O)=O)c1-n1cccc1`, the Kd was > 4 mM (inactive). With `c1ccc(CCc2nc(-c3ccncc3)no2)cc1` the Kd was > 4 mM (inactive). For `O=C(Nc1ccc(-c2nnco2)cc1)c1ccccc1`, the Kd was > 4 mM (inactive). For `O=c1sc2ccccc2n1CN1CCOCC1`, the Kd was > 4 mM (inactive). In the case of `CSc1ccn(CCC(=O)O)c(=O)n1`, the Kd is reported as > 4 mM (inactive). In the case of `CC(C)=CCCC1(C)C=Cc2c(O)c3c(c(CC=C(C)C)c2O1)OC12C(=CC4CC1C(C)(C)OC2(C/C=C(/C)C(=O)O)C4=O)C3=O` (stereo not drawn), the Kd is reported as > 4 mM (inactive). `COn1c(=O)c(-c2ccco2)[n+]([O-])c2ccccc21` was tested, and the Kd was > 4 mM (inactive). `CC(=O)Nc1ccc(Oc2nc(C)cc(C)n2)cc1` was tested, and the Kd was > 4 mM (inactive). In the case of `C[C@@H](N)[C@@H](O)c1ccccc1`, the Kd is reported as > 4 mM (inactive). In the case of `O=C1CCC(=O)N1c1nc2ccccc2s1`, the Kd is reported as > 4 mM (inactive). For `CC(=O)Nc1ccc2c(c1)n(C)c(=O)n2C`, the Kd was > 4 mM (inactive). With `NCc1cccc2nsnc12` the Kd was > 4 mM (inactive). In the case of `Cc1ncoc1C(=O)Nc1ccccc1C(N)=O`, the Kd is reported as > 4 mM (inactive). For `CN1CCC(NC(=O)c2ccccc2[N+](=O)[O-])CC1`, the Kd was > 4 mM (inactive). In the case of `CSc1ccc2nnc(-c3cccnc3)n2n1`, the Kd is reported as > 4 mM (inactive). `Oc1cc2c(cc1O)C1c3ccc(O)c(O)c3OCC1(O)C2` (stereo not drawn) was tested, and the Kd was > 4 mM (inactive). For `C=C(C)[C@@H]1CC[C@]2(CO)CC[C@]3(C)[C@H](CCC4[C@@]5(C)CC[C@H](O)C(C)(C)C5CC[C@]43C)C12` (stereo partly drawn), the Kd was > 4 mM (inactive). With `O=C(O)C1CC2CC1CCC2O` (stereo not drawn) the Kd was > 4 mM (inactive). For `O=S(=O)(N1CCOCC1)n1nnc2ccccc21`, the Kd was > 4 mM (inactive). For `COC(=O)Cc1csc(N)n1`, the Kd was > 4 mM (inactive). In the case of `O=C(O)c1ccc(-c2cnco2)cc1`, the Kd is reported as > 4 mM (inactive). For `Cc1ccccc1NC(=O)C1CC(=O)N=C(N)S1` (stereo not drawn), the Kd was > 4 mM (inactive). For `O=C(Nc1ccon1)c1ccc2c(c1)OCO2`, the Kd was > 4 mM (inactive). With `NC1=C(c2ccccc2)C(=O)c2ccccc21` the Kd was > 4 mM (inactive). With `CCCCn1c(=O)cc(O)c2ccccc21` the Kd was > 4 mM (inactive). `CCOc1ccc(C(=O)c2ccncc2)cc1` was tested, and the Kd was > 4 mM (inactive). For `O=C1CC(c2c[nH]c3ccccc23)C(=O)N1` (stereo not drawn), the Kd was > 4 mM (inactive). With `O=C(O)c1cn(-c2ccccc2)nc1-c1ccncc1` the Kd was > 4 mM (inactive). For `CC1=CCc2c(cc3oc(C)cc(=O)c3c2O)OC1`, the Kd was > 4 mM (inactive). With `O=C(c1ccncc1)N1CCN(C(=O)c2ccco2)CC1` the Kd was > 4 mM (inactive). For `C=C[C@H]1CN2CC[C@H]1C[C@@H]2[C@@H](O)c1ccnc2ccc(OC)cc12`, the Kd was > 4 mM (inactive). With `Cc1noc(C)c1CSc1nc2ccccc2[nH]1` the Kd was > 4 mM (inactive). In the case of `NC(=O)C1CCN(CC2CC=CCC2)CC1` (stereo not drawn), the Kd is reported as > 4 mM (inactive). With `CCC(=O)NC(=S)Nc1ccc(N2CCOCC2)cc1` the Kd was > 4 mM (inactive). `CCOc1cc(S(=O)(=O)N2CCOCC2)ccc1F` was tested, and the Kd was > 4 mM (inactive). In the case of `Cc1nc(SCC(=O)c2c[nH]c3ccccc23)n[nH]1`, the Kd is reported as > 4 mM (inactive). For `COc1ccc(-c2c(O)c3c(OC)c4c(cc3oc2=O)OC(C)(C)CC4)cc1`, the Kd was > 4 mM (inactive). For `Cn1cnc2cc(NC(=O)c3ccco3)ccc21`, the Kd was > 4 mM (inactive). For `CCc1ccccc1OCc1nnc(N)s1`, the Kd was > 4 mM (inactive). For `N#Cc1cnn(-c2ccc(Cl)cc2)c1N`, the Kd was > 4 mM (inactive). With `c1ccc(CCN2CCN(CCc3ccccn3)CC2)nc1` the Kd was > 4 mM (inactive). For `O=C(O)c1ccc(-c2ccccn2)s1`, the Kd was > 4 mM (inactive). With `CCOc1ccc(-c2c(=O)n(O)c3ccccc3[n+]2[O-])cc1` the Kd was > 4 mM (inactive). For `COc1ccc2nc(SCC(N)=O)[nH]c2c1`, the Kd was > 4 mM (inactive). With `O=C(O)[C@H](O)[C@@](O)(Cc1ccc(O)cc1)C(=O)O` the Kd was > 4 mM (inactive). With `Cc1sc2nc3n(c(=O)c2c1C)CCCS3` the Kd was > 4 mM (inactive). `OCc1ccc(-c2cccs2)s1` was tested, and the Kd was > 4 mM (inactive).
